Assay: molar heat capacity at constant pressure
Settings: 101.33 kPa

CCCCCCCC/C=C/CCCCCCCC(=O)OCC(COC(=O)CCCCCCC/C=C/CCCCCCCC)OC(=O)CCCCCCC/C=C/CCCCCCCC [trielaidin]
Small (less than 1 g) adiabatic calorimetry
Settings	molar heat capacity at constant pressure [J/K/mol]
8.85 K, Metastable crystal	2.656
9.73 K, Metastable crystal	8.854
10.55 K, Metastable crystal	11.51
11.43 K, Metastable crystal	19.48
12.54 K, Metastable crystal	24.79
13.08 K, Metastable crystal	28.33
14.42 K, Metastable crystal	36.3
14.92 K, Metastable crystal	40.73
16.44 K, Metastable crystal	50.47
16.93 K, Metastable crystal	56.67
18.55 K, Metastable crystal	70.83
18.95 K, Metastable crystal	75.26
20 K, Crystal	79.69
20 K, Metastable crystal	88.54
20.71 K, Metastable crystal	89.43
21.09 K, Metastable crystal	93.86
22.99 K, Metastable crystal	110.68
23.34 K, Metastable crystal	113.34
25 K, Crystal	115.11
25 K, Metastable crystal	123.96
25.34 K, Metastable crystal	130.16
25.67 K, Metastable crystal	134.59
27.78 K, Metastable crystal	148.75
28.07 K, Metastable crystal	150.52
30 K, Crystal	168.23
30 K, Metastable crystal	168.23
30.29 K, Metastable crystal	168.23
30.55 K, Metastable crystal	171.77
31.33 K, Metastable crystal	184.17
31.83 K, Metastable crystal	196.57
33.13 K, Metastable crystal	197.45
33.17 K, Metastable crystal	195.68
35 K, Crystal	203.65
35 K, Metastable crystal	212.5
35.4 K, Metastable crystal	219.59
37.51 K, Metastable crystal	236.41
39.64 K, Metastable crystal	254.12
40 K, Crystal	247.92
40 K, Metastable crystal	256.78
41.87 K, Metastable crystal	272.71
44.15 K, Metastable crystal	292.19
45 K, Crystal	292.19
45 K, Metastable crystal	301.05
46.49 K, Metastable crystal	312.56
48.88 K, Metastable crystal	332.92
50 K, Crystal	327.61
50 K, Metastable crystal	345.32
51.31 K, Metastable crystal	350.63
53.78 K, Metastable crystal	370.11
55 K, Crystal	371.88
55 K, Metastable crystal	380.74
56.3 K, Metastable crystal	393.13
58.84 K, Metastable crystal	412.61
60 K, Crystal	407.3
60 K, Metastable crystal	416.15
61.42 K, Metastable crystal	425.89
65 K, Crystal	442.72
65 K, Metastable crystal	451.57
66.67 K, Metastable crystal	466.62
69.33 K, Metastable crystal	480.79
70 K, Crystal	469.28
70 K, Metastable crystal	486.99
72.01 K, Metastable crystal	500.27
74.71 K, Metastable crystal	516.21
75 K, Crystal	504.7
75 K, Metastable crystal	522.4
77.43 K, Metastable crystal	531.26
80 K, Crystal	531.26
80 K, Metastable crystal	548.97
80.16 K, Metastable crystal	548.08
82.91 K, Metastable crystal	563.13
85 K, Crystal	557.82
85 K, Metastable crystal	575.53
85.67 K, Metastable crystal	580.84
88.45 K, Metastable crystal	595.01
90 K, Crystal	584.39
90 K, Metastable crystal	602.09
91.24 K, Metastable crystal	610.06
94.03 K, Metastable crystal	625.12
95 K, Crystal	610.95
95 K, Metastable crystal	628.66
96.84 K, Metastable crystal	639.28
99.66 K, Metastable crystal	654.33
100 K, Crystal	637.51
100 K, Metastable crystal	655.22
100.5 K, Metastable crystal	656.99
103.85 K, Metastable crystal	678.24
105 K, Crystal	655.22
105 K, Metastable crystal	681.78
106.65 K, Metastable crystal	689.75
109.51 K, Metastable crystal	701.26
110 K, Crystal	672.93
110 K, Metastable crystal	708.35
112.39 K, Metastable crystal	714.54
115.27 K, Metastable crystal	726.94
118.14 K, Metastable crystal	740.22
120 K, Crystal	717.2
120 K, Metastable crystal	752.62
121.03 K, Metastable crystal	753.5
123.91 K, Metastable crystal	765.9
126.79 K, Metastable crystal	778.29
129.68 K, Metastable crystal	792.46
130 K, Crystal	761.47
130 K, Metastable crystal	796.89
132.57 K, Metastable crystal	805.74
135.47 K, Metastable crystal	812.83
138.36 K, Metastable crystal	826.99
140 K, Crystal	788.03
140 K, Metastable crystal	832.31
141.26 K, Metastable crystal	842.93
144.16 K, Metastable crystal	850.01
147.07 K, Metastable crystal	864.18
149.97 K, Metastable crystal	875.69
150 K, Crystal	823.45
150 K, Metastable crystal	876.58
152.88 K, Metastable crystal	887.2
155.78 K, Metastable crystal	906.68
158.69 K, Metastable crystal	917.31
160 K, Crystal	867.72
160 K, Metastable crystal	920.85
161.6 K, Metastable crystal	932.36
164.51 K, Metastable crystal	946.53
167.42 K, Metastable crystal	962.46
170 K, Crystal	912
170 K, Metastable crystal	973.98
170.34 K, Metastable crystal	977.52
176.16 K, Metastable crystal	1009.4
179.08 K, Metastable crystal	1022.7
180 K, Crystal	947.41
180 K, Metastable crystal	1027.1
181.99 K, Metastable crystal	1043
184.9 K, Metastable crystal	1066.1
187.79 K, Metastable crystal	1080.2
190 K, Crystal	991.68
190 K, Metastable crystal	1097.9
190.66 K, Metastable crystal	1104.1
193.5 K, Metastable crystal	1125.4
196.32 K, Metastable crystal	1147.5
199.11 K, Metastable crystal	1169.7
200 K, Crystal	1036
200 K, Metastable crystal	1177.6
201.89 K, Metastable crystal	1191.8
204.65 K, Metastable crystal	1213.9
207.38 K, Metastable crystal	1237.8
210 K, Crystal	1071.4
210 K, Metastable crystal	1257.3
210.1 K, Metastable crystal	1260
212.79 K, Metastable crystal	1280.3
215.47 K, Metastable crystal	1303.4
218.13 K, Metastable crystal	1322.8
220 K, Crystal	1115.6
220 K, Metastable crystal	1337
220.78 K, Metastable crystal	1343.2
223.41 K, Metastable crystal	1362.7
226.02 K, Metastable crystal	1384.8
228.62 K, Metastable crystal	1405.2
230 K, Crystal	1159.9
230 K, Metastable crystal	1416.7
231.2 K, Metastable crystal	1423.8
233.77 K, Metastable crystal	1443.3
236.32 K, Metastable crystal	1463.6
238.87 K, Metastable crystal	1484
240 K, Crystal	1213
240 K, Metastable crystal	1496.4
241.4 K, Metastable crystal	1503.5
243.91 K, Metastable crystal	1523.8
246.41 K, Metastable crystal	1545.1
248.9 K, Metastable crystal	1565.4
250 K, Crystal	1266.2
250 K, Metastable crystal	1576.1
251.38 K, Metastable crystal	1586.7
253.84 K, Metastable crystal	1607.9
256.3 K, Metastable crystal	1629.2
258.74 K, Metastable crystal	1653.1
260 K, Crystal	1319.3
260 K, Metastable crystal	1664.6
261.18 K, Metastable crystal	1675.2
263.6 K, Metastable crystal	1697.4
266.01 K, Metastable crystal	1717.7
268.41 K, Metastable crystal	1732.8
270 K, Crystal	1390.1
270 K, Metastable crystal	1744.3
270.81 K, Metastable crystal	1742.5
273.2 K, Metastable crystal	1738.1
280 K, Crystal	1469.8
280 K, Metastable crystal	1815.1
288 K, Crystal	1549.5
288 K, Metastable crystal	1886
290 K, Crystal	1558.4
298.15 K, Crystal	1646.9
300 K, Crystal	1673.5
310 K, Crystal	1762
314.83 K, Crystal	1806.3
314.83 K, Liquid	1877.1
317.71 K, Liquid	1884.2
318.99 K, Liquid	1886.9
320 K, Liquid	1894.8
320.03 K, Liquid	1891.3
321 K, Liquid	1895.7
322.34 K, Liquid	1893.9
323.01 K, Liquid	1896.6
324.66 K, Liquid	1901.9
325.03 K, Liquid	1902.8
326.98 K, Liquid	1907.2
327.05 K, Liquid	1906.3
329.07 K, Liquid	1911.6
329.29 K, Liquid	1913.4
330 K, Liquid	1912.5
331.09 K, Liquid	1916.1
331.61 K, Liquid	1918.7
333.11 K, Liquid	1918.7
333.92 K, Liquid	1922.3
335.13 K, Liquid	1922.3
336.24 K, Liquid	1926.7
337.15 K, Liquid	1926.7
338.55 K, Liquid	1932.9
339.17 K, Liquid	1933.8
340.87 K, Liquid	1940.9
343.19 K, Liquid	1946.2
345.51 K, Liquid	1950.6
347.83 K, Liquid	1954.1
350.15 K, Liquid	1963

Crystal
Settings	molar heat capacity at constant pressure [J/K/mol]
10.52 K	3.542
11.9 K	8.854
12.76 K	23.91
14.41 K	29.22
16.16 K	44.27
17.98 K	59.32
19.96 K	75.26
22.02 K	93.86
24.22 K	111.56
26.5 K	130.16
28.88 K	149.64
35.94 K	215.16
38.34 K	255
40.46 K	267.4
42.73 K	264.74
45.11 K	290.42
47.47 K	311.67
49.86 K	329.38
52.29 K	347.97
54.77 K	367.45
57.28 K	389.59
59.83 K	409.07
62.4 K	409.96
65.01 K	435.63
67.64 K	457.77
70.3 K	473.71
72.97 K	489.64
75.67 K	503.81
78.39 K	521.52
81.12 K	535.69
83.86 K	550.74
86.62 K	565.79
89.39 K	580.84
92.18 K	595.01
95.56 K	609.18
99.01 K	629.54
104.65 K	654.33
107.48 K	666.73
110.32 K	677.36
113.16 K	689.75
116 K	701.26
118.85 K	713.66
121.7 K	725.17
124.56 K	734.02
127.41 K	742.88
130.27 K	758.82
133.13 K	766.78
135.99 K	775.64
138.85 K	786.26
141.71 K	796
144.57 K	804.86
147.42 K	815.48
150.23 K	826.99
153.02 K	837.62
155.77 K	850.01
158.51 K	861.53
161.21 K	871.27
163.89 K	883.66
166.55 K	893.4
169.18 K	904.91
171.79 K	914.65
174.38 K	927.05
176.95 K	936.79
179.5 K	947.41
182.03 K	958.04
184.54 K	970.43
187.03 K	978.4
189.51 K	989.03
191.97 K	998.77
194.42 K	1008.5
196.84 K	1020
199.25 K	1028.9
201.65 K	1037.7
206.39 K	1058.1
208.74 K	1067.8
211.08 K	1077.6
213.41 K	1087.3
215.72 K	1097.9
218.01 K	1108.6
220.3 K	1117.4
222.57 K	1127.2
224.83 K	1137.8
227.07 K	1149.3
229.31 K	1160.8
231.53 K	1169.7
233.74 K	1180.3
235.94 K	1190.9
238.13 K	1201.5
240.31 K	1212.2
242.48 K	1222.8
244.64 K	1235.2
246.79 K	1245.8
248.93 K	1256.4
251.06 K	1268.8
253.19 K	1279.4
255.3 K	1292.7
257.41 K	1305.1
259.5 K	1320.2
261.59 K	1332.6
263.67 K	1345.9
265.75 K	1360.9
267.81 K	1374.2
269.86 K	1389.2
271.91 K	1403.4
273.95 K	1419.3
275.98 K	1437.9
278 K	1454.8
280.02 K	1471.6
282.03 K	1489.3
284.04 K	1509.7
288.03 K	1543.3
290.02 K	1560.1
292 K	1580.5
293.98 K	1601.7
295.95 K	1622.1
297.92 K	1646.9
299.88 K	1669.9
301.84 K	1708.9
303.79 K	1742.5
305.74 K	1795.7
307.67 K	1890.4
309.58 K	2118.8

— the NIST ThermoML archive (doi:10.1021/je034048e)
